Among the data in US6686443 are ring closure, conversion values, retold here.

For this data set the following is noted: disulfide bond.

Where two headings read alike, the source gives them in different places.

Where the note is “from HSC(Me)2CH2CO-Tyr(Me)-Phe-Gln-Asn-Cys-Pro-Arg-Gly-NH2, 20-membered ring, trans-[Pt(en)2Cl2]2+”, `COc1ccc(C[C@@H]2NC(=O)CC(C)(C)SSC[C@@H](C(=O)N3CCC[C@H]3C(=O)N[C@@H](CCCNC(=N)N)C(=O)NCC(N)=O)NC(=O)[C@H](CC(N)=O)NC(=O)[C@H](CCC(N)=O)NC(=O)[C@H](Cc3ccccc3)NC2=O)cc1` gave a ring closure, conversion of 97%. For the setting “from Ac-Cys-Gly-Pro-Cys-NH2, 14-membered ring, trans-[Pt(en)2Cl2]2+”, `CC(=O)N[C@H]1CSSC[C@@H](C(N)=O)NC(=O)[C@@H]2CCCN2C(=O)CNC1=O` [Ac-Cys-Gly-Pro-Cys-NH2] showed a ring closure, conversion of 100%. As to `CC(=O)N[C@H]1CSSC[C@@H](C(N)=O)NC(=O)[C@H](C)NC(=O)[C@H](C)NC(=O)[C@H](Cc2ccccc2)NC(=O)[C@@H]2CCCN2C1=O` [Ac-Cys-Pro-Phe-Ala-Ala-Cys-NH2], the ring closure, conversion (from Ac-Cys-Pro-Phe-Ala-Ala-Cys-NH2, 20-membered ring, trans-[Pt(en)2Cl2]2+) was 100%. Molecule `CC(=O)N[C@H]1CSSC[C@@H](C(N)=O)NC(=O)[C@H](Cc2ccccc2)NC(=O)[C@@H]2CCCN2C1=O` [Ac-Cys-Pro-Phe-Cys-NH2] returned a ring closure, conversion (from Ac-Cys-Pro-Phe-Cys-NH2, 14-membered ring, trans-[Pt(en)2Cl2]2+) of 97%. Under “from Ac-Lys-Pro-Thr-Cys-Pro-Phe-Cys-Arg-Lys-Thr-NH2, 14-membered ring, trans-[Pt(en)2Cl2]2+”, `CC(=O)N[C@@H](CCCCN)C(=O)N1CCC[C@H]1C(=O)N[C@H](C(=O)N[C@H]1CSSC[C@@H](C(=O)N[C@@H](CCCNC(=N)N)C(=O)N[C@@H](CCCCN)C(=O)N[C@H](C(N)=O)[C@@H](C)O)NC(=O)[C@H](Cc2ccccc2)NC(=O)[C@@H]2CCCN2C1=O)[C@@H](C)O` [Ac-Lys-Pro-Thr-Cys-Pro-Phe-Cys-Arg-Lys-Thr-NH2] registered a ring closure, conversion of 100%.

`CC(=O)N1CCC[C@H]1C(=O)N[C@H](C(=O)N[C@H]1CSSC[C@@H](C(=O)N[C@@H](CCCNC(=N)N)C(=O)N[C@@H](CCCCN)C(N)=O)NC(=O)[C@H](Cc2ccccc2)NC(=O)[C@@H]2CCCN2C1=O)[C@@H](C)O` [Ac-Pro-Thr-Cys-Pro-Phe-Cys-Arg-Lys-NH2] showed a ring closure, conversion (from Ac-Pro-Thr-Cys-Pro-Phe-Cys-Arg-Lys-NH2, 14-membered ring, trans-[Pt(en)2Cl2]2+) of 100%. As to `CC[C@H](C)[C@H](NC(=O)[C@H](CC(=O)O)NC(=O)[C@@H](NC(C)=O)[C@@H](C)O)C(=O)N[C@H](C(=O)N[C@H]1CSSC[C@@H](C(=O)N[C@@H](Cc2c[nH]cn2)C(=O)N[C@@H](CCCCN)C(=O)N[C@@H](CC(C)C)C(=O)N[C@@H](Cc2c[nH]cn2)C(N)=O)NC(=O)[C@H](Cc2ccc(O)cc2)NC(=O)CNC1=O)[C@@H](C)O` [Ac-Thr-Asp-Ile-Thr-Cys-Gly-Tyr-Cys-His-Lys-Leu-His-NH2], the ring closure, conversion (from Ac-Thr-Asp-Ile-Thr-Cys-Gly-Tyr-Cys-His-Lys-Leu-His-NH2, 14-membered ring, trans-[Pt(en)2Cl2]2+) was 100%. As for `CC(=O)N[C@H](C(=O)N[C@H]1CSSC[C@@H](C(=O)N[C@@H](CCCNC(=N)N)C(N)=O)NC(=O)[C@H](Cc2ccccc2)NC(=O)[C@@H]2CCCN2C1=O)[C@@H](C)O` [Ac-Thr-Cys-Pro-Phe-Cys-Arg-NH2], the ring closure, conversion (from Ac-Thr-Cys-Pro-Phe-Cys-Arg-NH2, 14-membered ring, trans-[Pt(en)2Cl2]2+) turned out to be 100%. Where the note is “from H-Arg-Pro-Cys-Pro-Gln-Cys-Phe-Tyr-Pro-Leu-Met-NH2, 14-membered ring”, `CSCC[C@H](NC(=O)[C@H](CC(C)C)NC(=O)[C@@H]1CCCN1C(=O)[C@H](Cc1ccc(O)cc1)NC(=O)[C@H](Cc1ccccc1)NC(=O)[C@@H]1CSSC[C@H](NC(=O)[C@@H]2CCCN2C(=O)[C@@H](N)CCCNC(=N)N)C(=O)N2CCC[C@H]2C(=O)N[C@@H](CCC(N)=O)C(=O)N1)C(N)=O` [H-Arg-Pro-Cys-Pro-Gln-Cys-Phe-Tyr-Pro-Leu-Met-NH2] returned a ring closure, conversion of 99%. `N=C(N)NCCC[C@H](NC(=O)[C@@H]1CCCN1C(=O)[C@@H]1CSSC[C@H](N)C(=O)N[C@@H](Cc2ccc(O)cc2)C(=O)N[C@@H](Cc2ccccc2)C(=O)N[C@@H](CCC(N)=O)C(=O)N[C@@H](CC(N)=O)C(=O)N1)C(=O)NCC(N)=O` [arginine-vasopressin] returned a ring closure, conversion (from H-Cys-Tyr-Phe-Gln-Asn-Cys-Pro-Arg-Gly-NH2, 20-membered ring, trans-[Pt(en)2Cl2]2+) of 100%. `CC[C@H](C)[C@@H]1NC(=O)[C@H](Cc2ccc(O)cc2)NC(=O)[C@@H](N)CSSC[C@@H](C(=O)N2CCC[C@H]2C(=O)N[C@@H](CC(C)C)C(=O)NCC(N)=O)NC(=O)[C@H](CC(N)=O)NC(=O)[C@H](CCC(N)=O)NC1=O` [oxytocin]: the ring closure, conversion (from H-Cys-Tyr-Ile-Gln-Asn-Cys-Pro-Leu-Gly-NH2, 20-membered ring, trans-[Pt(en)2Cl2]2+) amounted to 98%. In turn, `NC(=O)CC[C@@H]1NC(=O)[C@H](Cc2ccccc2)NC(=O)[C@H](Cc2ccc(O)cc2)NC(=O)[C@@H](N)CSSC[C@@H](C(=O)O)NC(=O)[C@H](CC(N)=O)NC1=O` [pressinoic acid] came in with a ring closure, conversion (from H-Cys-Tyr-Phe-Gln-Asn-Cys-OH, 20-membered ring, trans-[Pt(en)2Cl2]2+) of 100%.

In turn, “H-Cys-Phe-Gly-Ser-Arg-Ile-Asp-Arg-Ile-Gly-Ala-Gln-Ser-Gly-Met-Gly-Cys-Gly-Arg-Phe-OH” had a ring closure, conversion (the molecule shown is the open-chain precursor, 53-membered ring, trans-[Pt(en)2Cl2]2+, phosphate buffer pH 6.0, 0.04 mM) of 100%. As for somatostatin, where the note is “38-membered ring”, the ring closure, conversion is 99%.
